Measured values published in ChEMBL document CHEMBL4680138, “A 18β-glycyrrhetinic acid conjugate with Vorinostat degrades HDAC3 and HDAC6 with improved antitumor effects” (Eur J Med Chem, 2020).
pIC50: −log10 of the molar value. Activity calls are given as the source filed them. The rule behind the calls is not given here.

Tests used:
[1] = tested on: PC-3; experiment: Cytotoxicity against human PC-3 cells assessed as reduction in cell viability after 96 hrs by MTT assay; format: functional, cell-based; conditions: PC-3, 96 h
[2] = tested on: HL-60; experiment: Antiproliferative activity against human HL-60 cells assessed as cell growth inhibition after 72 hrs by trypan blue staining based cell counting assay; format: functional; conditions: HL-60, 72 h
[3] = tested on: HL-60; experiment: Induction of apoptosis in human HL-60 cells assessed as early apoptotic cells at 2 uM measured after 24 hrs by Annexin-V/FITC and propidium iodide staining based flow cytometry (reference value: 2.46 %); format: functional
[4] = tested on: HL-60; experiment: Induction of apoptosis in human HL-60 cells assessed as increase in accumulation at sub-G1 phase at 2 uM after 24 hrs by propidium iodide staining based flow cytometry (reference value: 2.72 %); format: functional
[5] = tested on: HL-60; experiment: Induction of apoptosis in human HL-60 cells assessed as late apoptotic cells at 2 uM measured after 24 hrs by Annexin-V/FITC and propidium iodide staining based flow cytometry (reference value: 7.24 %); format: functional
[6] = tested on: HL-60; experiment: Induction of apoptosis in human HL-60 cells assessed as necrotic cells at 1 uM measured after 24 hrs by Annexin-V/FITC and propidium iodide staining based flow cytometry (reference value: 1.01 %); format: functional
[7] = tested on: HL-60; experiment: Induction of apoptosis in human HL-60 cells assessed as live cells at 0.5 uM measured after 24 hrs by Annexin-V/FITC and propidium iodide staining based flow cytometry (reference value: 89.29 %); format: functional
[8] = tested on: HL-60; experiment: Induction of apoptosis in human HL-60 cells assessed as increase in accumulation at sub-G1 phase at 1 uM after 24 hrs by propidium iodide staining based flow cytometry (reference value: 2.72 %); format: functional
[9] = tested on: HL-60; experiment: Induction of apoptosis in human HL-60 cells assessed as increase in accumulation at sub-G1 phase at 0.5 uM after 24 hrs by propidium iodide staining based flow cytometry (reference value: 2.72 %); format: functional
[10] = tested on: HL-60; experiment: Induction of apoptosis in human HL-60 cells assessed as early apoptotic cells at 1 uM measured after 24 hrs by Annexin-V/FITC and propidium iodide staining based flow cytometry (reference value: 2.46 %); format: functional
[11] = tested on: HL-60; experiment: Induction of apoptosis in human HL-60 cells assessed as necrotic cells at 2 uM measured after 24 hrs by Annexin-V/FITC and propidium iodide staining based flow cytometry (reference value: 1.01 %); format: functional
[12] = tested on: HL-60; experiment: Induction of apoptosis in human HL-60 cells assessed as live cells at 2 uM measured after 24 hrs by Annexin-V/FITC and propidium iodide staining based flow cytometry (reference value: 89.29 %); format: functional
[13] = tested on: HL-60; experiment: Induction of apoptosis in human HL-60 cells assessed as necrotic cells at 0.5 uM measured after 24 hrs by Annexin-V/FITC and propidium iodide staining based flow cytometry (reference value: 1.01 %); format: functional
[14] = tested on: HL-60; experiment: Induction of apoptosis in human HL-60 cells assessed as live cells at 1 uM measured after 24 hrs by Annexin-V/FITC and propidium iodide staining based flow cytometry (reference value: 89.29 %); format: functional
[15] = tested on: HL-60; experiment: Induction of apoptosis in human HL-60 cells assessed as late apoptotic cells at 1 uM measured after 24 hrs by Annexin-V/FITC and propidium iodide staining based flow cytometry (reference value: 7.24 %); format: functional
[16] = tested on: HL-60; experiment: Induction of apoptosis in human HL-60 cells assessed as late apoptotic cells at 0.5 uM measured after 24 hrs by Annexin-V/FITC and propidium iodide staining based flow cytometry (reference value: 7.24 %); format: functional
[17] = tested on: HL-60; experiment: Upregulation of acetylated H3 level in human HL-60 cells at 2 uM measured after 12 hrs by Western blot analysis; format: functional, cell-based
[18] = tested on: HL-60; experiment: Induction of apoptosis in human HL-60 cells assessed as early apoptotic cells at 0.5 uM measured after 24 hrs by Annexin-V/FITC and propidium iodide staining based flow cytometry (reference value: 2.46 %); format: functional
[19] = tested on: HL-60; experiment: Upregulation of acetylated alpha-tubulin level in human HL-60 cells at 2 uM measured after 12 hrs by Western blot analysis; format: functional, cell-based

Row | pIC50 [2] | SMILES | pIC50 [1] | other results
1 | 4.81 | CC1(C)[C@@H](O)CC[C@]2(C)[C@H]3C(=O)C=C4[C@@H]5C[C@@](C)(C(=O)NCCCCC(=O)NO)CC[C@]5(C)CC[C@@]4(C)[C@]3(C)CC[C@@H]12 | 4.73 | 
2 | 5.47 | CC1(C)[C@@H](O)CC[C@]2(C)[C@H]3C(=O)C=C4[C@@H]5C[C@@](C)(C(=O)N6CCN(c7ccc(NC(=O)CCCCC(=O)NO)cc7)CC6)CC[C@]5(C)CC[C@@]4(C)[C@]3(C)CC[C@@H]12 | 5.26 | 
3 | 5.87 | CC1(C)[C@@H](O)CC[C@]2(C)[C@H]3C(=O)C=C4[C@@H]5C[C@@](C)(C(=O)OCCCOc6ccc(NC(=O)CCCC(=O)NO)cc6)CC[C@]5(C)CC[C@@]4(C)[C@]3(C)CC[C@@H]12 | 5.35 | 
4 | 4.67 | CC1(C)[C@@H](O)CC[C@]2(C)[C@H]3C(=O)C=C4[C@@H]5C[C@@](C)(C(=O)NCCCC(=O)NO)CC[C@]5(C)CC[C@@]4(C)[C@]3(C)CC[C@@H]12 | 4.60 | 
5 | 4.26 | CC1(C)[C@@H](O)CC[C@]2(C)[C@H]3C(=O)C=C4[C@@H]5C[C@@](C)(C(=O)O)CC[C@]5(C)CC[C@@]4(C)[C@]3(C)CC[C@@H]12 [ENOXOLONE] | 3.98 | 
6 | 5.32 | CC1(C)[C@@H](O)CC[C@]2(C)[C@H]3C(=O)C=C4[C@@H]5C[C@@](C)(C(=O)N6CCN(c7ccc(NC(=O)CCCC(=O)NO)cc7)CC6)CC[C@]5(C)CC[C@@]4(C)[C@]3(C)CC[C@@H]12 | 4.93 | 
7 | 5.87 | COC(=O)[C@@]1(C)CC[C@]2(C)CC[C@]3(C)C(=CC(=O)[C@@H]4[C@@]5(C)C=C(C#N)C(=O)C(C)(C)[C@@H]5CC[C@]43C)[C@@H]2C1 | 5.77 | Activity [3]: 2.52%; Activity [4]: 19.18%; Activity [5]: 16.96%; Activity [6]: 2.31%; Activity [7]: 87.34%; Activity [8]: 3.57%; Activity [9]: 2.91%; Activity [10]: 3.27%; Activity [11]: 3.1%; Activity [12]: 77.42%; Activity [13]: 1.89%; Activity [14]: 81.11%; Activity [15]: 13.31%; Activity [16]: 9%; Activity [17]: inactive; Activity [18]: 1.77%
8 | 5.55 | CC1(C)[C@@H](O)CC[C@]2(C)[C@H]3C(=O)C=C4[C@@H]5C[C@@](C)(C(=O)OCCOc6ccc(NC(=O)CCCCCC(=O)NO)cc6)CC[C@]5(C)CC[C@@]4(C)[C@]3(C)CC[C@@H]12 | 5.43 | 
9 | 5.75 | CC1(C)[C@@H](O)CC[C@]2(C)[C@H]3C(=O)C=C4[C@@H]5C[C@@](C)(C(=O)N6CCN(c7ccc(NC(=O)CCCCCC(=O)NO)cc7)CC6)CC[C@]5(C)CC[C@@]4(C)[C@]3(C)CC[C@@H]12 | 5.51 | 
10 | 5.02 | CC1(C)[C@@H](O)CC[C@]2(C)[C@H]3C(=O)C=C4[C@@H]5C[C@@](C)(C(=O)NCCCCCCC(=O)NO)CC[C@]5(C)CC[C@@]4(C)[C@]3(C)CC[C@@H]12 | 4.93 | 
11 | 5.06 | CC1(C)[C@@H](O)CC[C@]2(C)[C@H]3C(=O)C=C4[C@@H]5C[C@@](C)(C(=O)NCCCCCC(=O)NO)CC[C@]5(C)CC[C@@]4(C)[C@]3(C)CC[C@@H]12 | 4.87 | 
12 | 5.79 | CC1(C)[C@@H](O)CC[C@]2(C)[C@H]3C(=O)C=C4[C@@H]5C[C@@](C)(C(=O)OCCCOc6ccc(NC(=O)CCCCCC(=O)NO)cc6)CC[C@]5(C)CC[C@@]4(C)[C@]3(C)CC[C@@H]12 | 5.37 | 
13 | 5.85 | CC1(C)[C@@H](O)CC[C@]2(C)[C@H]3C(=O)C=C4[C@@H]5C[C@@](C)(C(=O)OCCCOc6ccc(NC(=O)CCCCC(=O)NO)cc6)CC[C@]5(C)CC[C@@]4(C)[C@]3(C)CC[C@@H]12 | 5.40 | 
14 | 6.14 | CC1(C)[C@@H](O)CC[C@]2(C)[C@H]3C(=O)C=C4[C@@H]5C[C@@](C)(C(=O)N6CCN(c7ccc(NC(=O)CCCCCCC(=O)NO)cc7)CC6)CC[C@]5(C)CC[C@@]4(C)[C@]3(C)CC[C@@H]12 | 5.61 | 
15 | 5.82 | CC1(C)[C@@H](O)CC[C@]2(C)[C@H]3C(=O)C=C4[C@@H]5C[C@@](C)(C(=O)OCCOc6ccc(NC(=O)CCCC(=O)NO)cc6)CC[C@]5(C)CC[C@@]4(C)[C@]3(C)CC[C@@H]12 | 5.16 | 
16 | 5.56 | CC1(C)[C@@H](O)CC[C@]2(C)[C@H]3C(=O)C=C4[C@@H]5C[C@@](C)(C(=O)OCCCOc6ccc(NC(=O)CCCCCCC(=O)NO)cc6)CC[C@]5(C)CC[C@@]4(C)[C@]3(C)CC[C@@H]12 | 5.27 | 
17 | 5.35 | CC1(C)[C@@H](O)CC[C@]2(C)[C@H]3C(=O)C=C4[C@@H]5C[C@@](C)(C(=O)OCCOc6ccc(NC(=O)CCCCCCC(=O)NO)cc6)CC[C@]5(C)CC[C@@]4(C)[C@]3(C)CC[C@@H]12 | 5.07 | 
18 | 5.68 | CC1(C)[C@@H](O)CC[C@]2(C)[C@H]3C(=O)C=C4[C@@H]5C[C@@](C)(C(=O)OCCOc6ccc(NC(=O)CCCCC(=O)NO)cc6)CC[C@]5(C)CC[C@@]4(C)[C@]3(C)CC[C@@H]12 | 5.09 | 
19 |  | O=C(CCCCCCC(=O)Nc1ccccc1)NO [VORINOSTAT] |  | Activity [3]: 5.02%; Activity [19]: Active; Activity [4]: 43.31%; Activity [5]: 39.71%; Activity [6]: 2.36%; Activity [7]: 86.69%; Activity [8]: 5.34%; Activity [9]: 2.07%; Activity [10]: 2.42%; Activity [11]: 5.87%; Activity [12]: 49.4%; Activity [13]: 1.94%; Activity [14]: 82.27%; Activity [15]: 12.96%; Activity [16]: 8.95%; Activity [17]: Active; Activity [18]: 2.41%
